According to patent US20110165115A1, “SYNERGISTIC ATTRACTANTS FOR PESTIFEROUS SOCIAL INSECTS” (STERLING INTERNATIONAL INC., priority 2010, published 2011):

The molecules below were run on V. atropilosa (assay: not given). Conditions: Exp 1; HIPV added to WHY attractant in the top chamber, or WHY alone.
Assay type: in vivo, Vespula atropilosa

SMILES | Total Yellowjacket Catches V. atropilosa
C=C/C=C(\C)CCC=C(C)C [(E)-4,8-dimethyl-1,3,7-nonatriene] | 3
COC(=O)c1ccccc1O [Methyl Salicylate, methyl salicylate] | 4
CC/C=C\CCO [Z-3-Hexanol, (Z)-3-hexen-1-ol] | 0
CC/C=C\CCOC(C)=O [Z-3-Hexenyl Acetate, (Z)-3-hexenyl acetate] | 0

What follows are molecules tested on P. aurifer (assay: Field trapping Experiment 1, Rescue W•H•Y traps). Conditions: Exp 1; HIPV added to WHY attractant in the top chamber, or WHY alone.
Assay type: in vivo, Polistes aurifer
Method: (§1) Three field trapping experiments were carried out during late July to early August 2009, in residential and woody areas around Spokane, Wash., USA, using the newly marketed Rescue® W•H•Y traps (www.rescue.com). As used herein, the W•H•Y trap is a trap in accordance with the description of United States Patent Application Publication No. 2009/0151228. The W•H•Y trap has a top chamber and a bottom chamber. The top chamber is baited with two attractants—one of which is a solid contained in a vial (2-methyl-1-butanol) and the other a liquid mixed with water (acetic acid), herein referred to as the W•H•Y top attractant. The bottom chamber is baited with a liquid attractant (heptyl butyrate) poured onto a cotton pad, herein referred to as the W•H•Y bottom attractant. Separation of the top and bottom attractants (otherwise antagonistic to each other when released from the same chamber) in two chambers was a design feature of this trap and creates two focal attraction sources from one trap for different species of wasps, hornets, and yellowjackets. Traps were hung 1.5-2.0 m above the ground on either the fence or tree branches ca. 5 m apart within each trap line. For each trapping experiment, six sets of traps were deployed with their initial trap positions within each set being randomized. To minimize positional effects and obtain more replications, wasp collections and trap re-randomization were carried out when ≧10-20 wasps were caught in the best trap. Each replicate lasted several days depending on wasp flight activity. Captured wasps were removed from the traps and kept in the zip-bags before taking back to the laboratory for recording of the species, gender status, and catch.
(§2) Experiment 3 (Aug. 5-13, 2009) was conducted to determine the potential behavioral activity of different doses of (E)-4,8-dimethyl-1,3,7-nonatriene alone. The individual (or different doses) HIPVs were loaded into either polyethylene bags or centrifuge tube type of dispensers, and released from the top of the W•H•Y trap chamber. W•H•Y trap attractants (both top and bottom or top only) alone and water (top chamber only) were included in the test as positive and blank controls, respectively. The dispenser types, loading and release rates of the tested semiochemicals are described in Tables 1, 2 and 3.
(§3) Trap catch data were converted to proportion (P) of total captured wasps within each replicate. Data were then transformed by arcsin√P to meet the assumptions of normality and homogeneity of variances for ANOVA. Means were compared by ANOVA followed by the Ryan-Einot-Gabriel-Welsh (REGW) multiple Q test (SPSS 16.0 for Windows) at α=0.05.

SMILES | Total Paper Wasps P. aurifer
C=C/C=C(\C)CCC=C(C)C [(E)-4,8-dimethyl-1,3,7-nonatriene] | 12
COC(=O)c1ccccc1O [Methyl Salicylate, methyl salicylate] | 6
CC/C=C\CCO [Z-3-Hexanol, (Z)-3-hexen-1-ol] | 4
CC/C=C\CCOC(C)=O [Z-3-Hexenyl Acetate, (Z)-3-hexenyl acetate] | 9

These molecules were tested on V. acadica (assay: Field trapping Experiment 1, Rescue W•H•Y traps). Conditions: Exp 1; HIPV added to WHY attractant in the top chamber, or WHY alone.
Assay type: in vivo, Vespula acadica
Method: as §1, §2, §3

SMILES | Total Yellowjacket Catches V. acadica
C=C/C=C(\C)CCC=C(C)C [(E)-4,8-dimethyl-1,3,7-nonatriene] | 1
COC(=O)c1ccccc1O [Methyl Salicylate, methyl salicylate] | 0
CC/C=C\CCO [Z-3-Hexanol, (Z)-3-hexen-1-ol] | 0
CC/C=C\CCOC(C)=O [Z-3-Hexenyl Acetate, (Z)-3-hexenyl acetate] | 1

Each molecule was assayed on Hippodarnia convergens antennae (assay: GC-EAD of synthetic HIPVs on beneficial insect antennae). Conditions: FIG. 6.
Method: (§4) Aeration samples of the cherry branches (damaged or undamaged/slightly damaged) were injected (3 μl) splitless into a Varian CP-3800 GC equipped with a polar column (HP-INNOWax; 30 m×0.53 mm×1.0 μm film thickness; Agilent Technologies, Wilmington, Del., USA) and a 1:1 effluent splitter that allowed simultaneous flame ionization detection (FID) and electroantennographic detection (EAD) of the European paper wasp (Polistes dominulus) worker antennae to the separated volatile compounds. Helium was used as the carrier gas, and the injector and detector temperatures were 250° C. and 300° C., respectively. Column temperature was 50° C. for 1 min, rising to 240° C. at 10° C./min, and then held for 10 min. The outlet for the EAD was held in a humidified air stream flowing at 0.5 m/sec over the antennal preparation. EAD recordings were made using silver wire-glass capillary electrodes filled with Beadle-Ephrussi Ringer on freshly cut antennae. The antennal signals were stored and analyzed on a PC equipped with a serial IDAC interface box and the program EAD ver. 2.5 (Syntech, Hilversum, The Netherlands). In addition, GC-EAD responses to a synthetic mixture (100 ng/μl each) containing nine known HIPVs including cis-3-hexen-1-ol, cis-3-hexenyl acetate, trans-β-ocimene, (E)-4,8-dimethyl-1,3,7-nonatriene, linalool, methyl salicylate, geranyl acetate, trans-β-caryophyllene and trans-β-farnesene were tested on the P. dominulus workers. (See FIG. 2.) The same chemicals were also tested on beneficial insect antennae from Chrysopa oculata, Myrmeleon crudelis, Podisus maculiventris, and Hippodarnia convergens. (See FIG. 6.) Antennally active peaks in the aeration samples were identified by GC-MS on an HP 6890 GC series coupled with an HP 5973 Mass Selective Detector using the same type of GC column and conditions as described above. Compounds were identified by comparison of retention times with those of authentic standards and with mass spectra of standards.

SMILES | EAD-response
C=C/C=C(\C)CCC=C(C)C [(E)-4,8-dimethyl-1,3,7-nonatriene] | strong EAD-responses
COC(=O)c1ccccc1O [Methyl Salicylate, methyl salicylate] | strong EAD-responses
CC/C=C\CCOC(C)=O [Z-3-Hexenyl Acetate, (Z)-3-hexenyl acetate] | strong EAD-responses

What follows are molecules tested on Myrmeleon crudelis antennae in the same assay as above. Conditions: FIG. 6.
Method: as §4

SMILES | EAD-response
C=C/C=C(\C)CCC=C(C)C [(E)-4,8-dimethyl-1,3,7-nonatriene] | strong EAD-responses
COC(=O)c1ccccc1O [Methyl Salicylate, methyl salicylate] | strong EAD-responses
CC/C=C\CCOC(C)=O [Z-3-Hexenyl Acetate, (Z)-3-hexenyl acetate] | strong EAD-responses

Each molecule was assayed on Chrysopa oculata antennae in the same assay as above. Conditions: FIG. 6.
Method: as §4

SMILES | EAD-response
C=C/C=C(\C)CCC=C(C)C [(E)-4,8-dimethyl-1,3,7-nonatriene] | strong EAD-responses
COC(=O)c1ccccc1O [Methyl Salicylate, methyl salicylate] | strong EAD-responses
CC/C=C\CCOC(C)=O [Z-3-Hexenyl Acetate, (Z)-3-hexenyl acetate] | strong EAD-responses

What follows are molecules tested on Podisus maculiventris antennae in the same assay as above. Conditions: FIG. 6.
Method: as §4

SMILES | EAD-response
C=C/C=C(\C)CCC=C(C)C [(E)-4,8-dimethyl-1,3,7-nonatriene] | strong EAD-responses
COC(=O)c1ccccc1O [Methyl Salicylate, methyl salicylate] | strong EAD-responses
CC/C=C\CCOC(C)=O [Z-3-Hexenyl Acetate, (Z)-3-hexenyl acetate] | strong EAD-responses

Each molecule was assayed on P. dominulus workers antennae (assay: GC-EAD of synthetic mixture of known HIPVs). Conditions: 100 ng/μl each in hexane.
Design: species or system Polistes dominulus
Method: as §4

SMILES | EAD response of worker antennae
C=C/C=C(\C)CCC=C(C)C [(E)-4,8-dimethyl-1,3,7-nonatriene] | responded consistently
COC(=O)c1ccccc1O [Methyl Salicylate, methyl salicylate] | responded consistently
CC/C=C\CCO [Z-3-Hexanol, (Z)-3-hexen-1-ol] | responded consistently
CC/C=C\CCOC(C)=O [Z-3-Hexenyl Acetate, (Z)-3-hexenyl acetate] | responded consistently

What follows are molecules tested on D. maculata (assay: Field trapping Experiment 1, Rescue W•H•Y traps). Conditions: Exp 1; HIPV added to WHY attractant in the top chamber, or WHY alone.
Assay type: in vivo, Dolichovespula maculata
Method: as §1
(§5) Experiment 1 (Jul. 22-30, 2009) tested ten synthetic HIPV candidates [(E)-2-hexenal, (Z)-3-hexen-1-ol, (Z)-3-hexenyl acetate, cis-ocimene, linalool, methyl salicylate, geranyl acetate, trans-β-caryophyllene, trans-β-farnesene and (E)-4,8-dimethyl-1,3,7-nonatriene], including several paper wasp EAD-active compounds (see FIG. 2 for details), to determine their potential synergistic effect on the Rescue® W•H•Y trap attractants to paper wasps, yellowjackets, and hornets. Experiment 2 (Aug. 5-13, 2009) tested behavioral responses of the paper wasps and yellowjackets to the Rescue® W•H•Y trap attractants (top attractants only) and its combination with (E)-4,8-dimethyl-1,3,7-nonatriene, one of the EAD-active and behaviorally significant HIPVs, in a dose-response fashion. Experiment 3 (Aug. 5-13, 2009) was conducted to determine the potential behavioral activity of different doses of (E)-4,8-dimethyl-1,3,7-nonatriene alone. The individual (or different doses) HIPVs were loaded into either polyethylene bags or centrifuge tube type of dispensers, and released from the top of the W•H•Y trap chamber. W•H•Y trap attractants (both top and bottom or top only) alone and water (top chamber only) were included in the test as positive and blank controls, respectively. The dispenser types, loading and release rates of the tested semiochemicals are described in Tables 1, 2 and 3.
as §3

SMILES | Total Yellowjacket Catches D. maculata
C=C/C=C(\C)CCC=C(C)C [(E)-4,8-dimethyl-1,3,7-nonatriene] | 12
COC(=O)c1ccccc1O [Methyl Salicylate, methyl salicylate] | 1
CC/C=C\CCO [Z-3-Hexanol, (Z)-3-hexen-1-ol] | 5
CC/C=C\CCOC(C)=O [Z-3-Hexenyl Acetate, (Z)-3-hexenyl acetate] | 1

The molecules below were run on D. arenaria (assay: Field trapping Experiment 1, Rescue W•H•Y traps). Conditions: Exp 1; HIPV added to WHY attractant in the top chamber, or WHY alone.
Assay type: in vivo, Dolichovespula arenaria
Method: as §1, §5, §3

SMILES | Total Yellowjacket Catches D. arenaria
C=C/C=C(\C)CCC=C(C)C [(E)-4,8-dimethyl-1,3,7-nonatriene] | 7
COC(=O)c1ccccc1O [Methyl Salicylate, methyl salicylate] | 4
CC/C=C\CCO [Z-3-Hexanol, (Z)-3-hexen-1-ol] | 1
CC/C=C\CCOC(C)=O [Z-3-Hexenyl Acetate, (Z)-3-hexenyl acetate] | 8

What follows are molecules tested on V. vulgaris (assay: Field trapping Experiment 1, Rescue W•H•Y traps). Conditions: Exp 1; HIPV added to WHY attractant in the top chamber, or WHY alone.
Assay type: in vivo, Vespula vulgaris
Method: as §1, §2, §3

SMILES | Total Yellowjacket Catches V. vulgaris
C=C/C=C(\C)CCC=C(C)C [(E)-4,8-dimethyl-1,3,7-nonatriene] | 52
COC(=O)c1ccccc1O [Methyl Salicylate, methyl salicylate] | 23
CC/C=C\CCO [Z-3-Hexanol, (Z)-3-hexen-1-ol] | 33
CC/C=C\CCOC(C)=O [Z-3-Hexenyl Acetate, (Z)-3-hexenyl acetate] | 34

What follows are molecules tested on P. dominulus (assay: Field trapping Experiment 1, Rescue W•H•Y traps). Conditions: Exp 1; HIPV added to WHY attractant in the top chamber, or WHY alone.
Assay type: in vivo, Polistes dominulus
Method: as §1, §2, §3

SMILES | Total Paper Wasps P. dominulus
C=C/C=C(\C)CCC=C(C)C [(E)-4,8-dimethyl-1,3,7-nonatriene] | 152
COC(=O)c1ccccc1O [Methyl Salicylate, methyl salicylate] | 33
CC/C=C\CCO [Z-3-Hexanol, (Z)-3-hexen-1-ol] | 25
CC/C=C\CCOC(C)=O [Z-3-Hexenyl Acetate, (Z)-3-hexenyl acetate] | 40
